In patent US20170253607A1, “LONG-ACTING HIV PROTEASE INHIBITOR” (Shionogi & Co., Ltd., priority 2014, published 2017):

What follows are compounds tested against HIV-1 PR (Human immunodeficiency virus type 1 group M subtype B, UniProt P04585) (assay: HIV-protease inhibitory activity assay (FRET peptide substrate)). Conditions: Test Example 1.
Assay type: biochemical
Summary of the method: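 Inhibition of HIV-1 protease was measured as loss of fluorescence dequenching of a HiLyte Fluor 488/QXL 520 peptide at 2 μmol/L, pH 4.8, room temperature, 60 minute reaction. IC50 was derived by nonlinear four-parameter fitting.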

Row | SMILES | IC50 [nM]
1 | COc1ccc(S(=O)(=O)N(CC(C)C)CC(O)C(Cc2ccc(NCc3ncn4cc(-c5sc6c(c5C(=O)O)CC(C)(C)CC6)ccc34)cc2)NC(=O)OC2COC3(C)OCCC23)cc1 (stereo not drawn) [Compound I-323] | 2.41
2 | COc1ccc(S(=O)(=O)N(CC(C)C)CC(O)C(Cc2ccc(N(Cc3ccccc3-c3sc4c(c3C(=O)O)CC(C)(C)CC4)CC(C)C)cc2)NC(=O)OC2COC3(C)OCCC23)cc1 (stereo not drawn) [Compound I-422] | 8.58
3 | COc1ccc(S(=O)(=O)N(CC(C)C)CC(O)C(Cc2ccc(NCCCc3sc4c(c3C(=O)O)CC(C)(C)CC4)cc2)NC(=O)OC2COC3(C)OCCC23)cc1 (stereo not drawn) [Compound I-335] | 1.81
4 | COc1ccc(S(=O)(=O)N(CC(C)C)CC(O)C(Cc2ccc(NCc3nc(N4CCCCC4)sc3-c3sc4c(c3C(=O)O)CC(C)(C)CC4)cc2)NC(=O)OC2COC3(C)OCCC23)cc1 (stereo not drawn) [Compound I-737] | 1.99
5 | COc1ccc(S(=O)(=O)N(CC(C)C)CC(O)C(Cc2ccc(C(=O)N(C)Cc3ccccc3-c3sc4c(c3C(=O)O)CC(C)(C)CC4)cc2)NC(=O)OC2COC3(C)OCCC23)cc1 (stereo not drawn) [Compound I-219] | 2.06
6 | COc1ccc(S(=O)(=O)N(CC(C)C)CC(O)C(Cc2ccc(OCC3COCC3c3sc4c(c3C(=O)O)CC(C)(C)CC4)cc2)NC(=O)OC2COC3(C)OCCC23)cc1 (stereo not drawn) [Compound I-394] | 1.64
7 | COc1ccc(S(=O)(=O)N(CC(C)C)CC(O)C(Cc2ccc(OC3CCN(Cc4sc5c(c4C(=O)O)CC(C)(C)CC5)C3)cc2)NC(=O)OC2COC3(C)OCCC23)cc1 (stereo not drawn) [Compound I-184] | 1.64
8 | COc1ccc(S(=O)(=O)N(CC(C)C)CC(O)C(Cc2ccc(N(C)CC(=O)Nc3sc4c(c3C(=O)O)CC(C)(C)CC4)cc2)NC(=O)OC2COC3(C)OCCC23)cc1 (stereo not drawn) [Compound I-663] | 2.8
9 | COc1ccc(S(=O)(=O)N(CC(C)C)CC(O)C(Cc2ccc(NCc3ccccc3-c3ccccc3C(=O)O)cc2)NC(=O)OC2COC3(C)OCCC23)cc1 (stereo not drawn) [Compound I-497] | 1.96
10 | COc1ccc(S(=O)(=O)N(CC(C)C)CC(O)C(Cc2ccc(OC3CCCN(c4ccc(C#N)cc4-c4sc5c(c4C(=O)O)CC(C)(C)CC5)C3)cc2)NC(=O)OC2COC3(C)OCCC23)cc1 (stereo not drawn) [Compound I-332] | 7.39
11 | COC(=O)c1ccc(CNc2ccc(CC(NC(=O)OC3COC4(C)OCCC34)C(O)CN(CC(C)C)S(=O)(=O)c3ccc(OC)cc3)cc2)c(-c2sc3c(c2C(=O)O)CC(C)(C)CC3)c1 (stereo not drawn) [Compound I-408] | 1.8
12 | COc1ccc(S(=O)(=O)N(CC(C)C)CC(O)C(Cc2ccc(N3CCC(Cc4ccccc4-c4sc5c(c4C(=O)O)CC(C)(C)CC5)C3)cc2)NC(=O)OC2COC3(C)OCCC23)cc1 (stereo not drawn) [Compound I-668] | 7.06
13 | CC(C)CN(CC(O)C(Cc1ccc(OCc2cc(-c3ccc(F)cc3F)ccc2C(N)=O)cc1)NC(=O)OC1COC2(C)OCCC12)S(=O)(=O)c1ccc2ncsc2c1 (stereo not drawn) [Compound I-62] | 0.82
14 | COc1ccc(S(=O)(=O)N(CC(C)C)CC(O)C(Cc2ccc(N3CCC(C(=O)N(C)c4sc5c(c4C(=O)O)CC(C)(C)CC5)C3)cc2)NC(=O)OC2COC3(C)OCCC23)cc1 (stereo not drawn) [Compound I-646] | 2.92
15 | COc1ccc(S(=O)(=O)N(CC(C)C)CC(O)C(Cc2ccc(Nc3ccc(-c4sc5c(c4C(=O)O)CC(C)(C)CC5)cc3)cc2)NC(=O)OC2COC3(C)OCCC23)cc1 (stereo not drawn) [Compound I-468] | 5.6
16 | COc1ccc(S(=O)(=O)N(CC(C)C)CC(O)C(Cc2ccc(OCc3ccccc3-c3sccc3C(=O)O)cc2)NC(=O)OC2COC3(C)OCCC23)cc1 (stereo not drawn) [Compound I-97] | 0.82
17 | COc1ccc(S(=O)(=O)N(CC(C)C)CC(O)C(Cc2ccc(NCc3ccc(C(=O)Nc4sc5c(c4C(=O)O)CC(C)(C)CC5)cc3)cc2)NC(=O)OC2COC3(C)OCCC23)cc1 (stereo not drawn) [Compound I-437] | 4.42

Row | SMILES | IC50 [nM]
18 | COc1ccc(S(=O)(=O)N(CC(C)C)CC(O)C(Cc2ccc(NCc3cc(-c4ccc5c(c4)[nH]c4ccccc45)ccc3-c3sc4c(c3C(=O)O)CC(C)(C)CC4)cc2)NC(=O)OC2COC3(C)OCCC23)cc1 (stereo not drawn) [Compound I-724] | 1.83
19 | CC(C)CN(CC(O)C(Cc1ccc(OCc2ccccc2-c2sc3c(c2C(=O)O)CC(C)(C)CC3)cc1)NC(=O)OC1COC2(C)OCCC12)S(=O)(=O)c1ccc(N)cc1 (stereo not drawn) [Compound I-52] | 2.34
20 | COc1ccc(S(=O)(=O)N(CC(C)C)CC(O)C(Cc2ccc(NCc3nc4ccccc4cc3-c3sc4c(c3C(=O)O)CC(C)(C)CC4)cc2)NC(=O)OC2COC3(C)OCCC23)cc1 (stereo not drawn) [Compound I-568] | 1.54
21 | COc1ccc(S(=O)(=O)N(CC(C)C)CC(O)C(Cc2ccc(N3CC4CN(c5ccc(C#N)cc5-c5sc6c(c5C(=O)O)CC(C)(C)CC6)CC4C3)cc2)NC(=O)OC2COC3(C)OCCC23)cc1 (stereo not drawn) [Compound I-233] | 6.22
22 | COc1ccc(S(=O)(=O)N(CC(C)C)CC(O)C(Cc2ccc(NCC3(c4ccc(-c5sc6c(c5C(=O)O)CC(C)(C)CC6)cc4)CCCC3)cc2)NC(=O)OC2COC3(C)OCCC23)cc1 (stereo not drawn) [Compound I-340] | 5.6
23 | COc1ccc(S(=O)(=O)N(CC(C)C)CC(O)C(Cc2ccc(NCc3cccc(-c4sc5c(c4C(=O)O)CC(C)(C)CC5)c3)cc2)NC(=O)OC2COC3(C)OCCC23)cc1 (stereo not drawn) [Compound I-254] | 2.64
24 | COc1ccc(S(=O)(=O)N(CC(C)C)CC(O)C(Cc2ccc(NCc3cncc(C(=O)Nc4sc5c(c4C(=O)O)CC(C)(C)CC5)c3)cc2)NC(=O)OC2COC3(C)OCCC23)cc1 (stereo not drawn) [Compound I-443] | 1.88
25 | COc1ccc(S(=O)(=O)N(CC(C)C)CC(O)C(Cc2ccc(NCC3=C(c4sc5c(c4C(=O)O)CC(C)(C)CC5)CCC(F)(F)C3)cc2)NC(=O)OC2COC3(C)OCCC23)cc1 (stereo not drawn) [Compound I-705] | 4.87
26 | COc1ccc(S(=O)(=O)N(CC(C)C)CC(O)C(Cc2ccc(OCc3ccccc3-c3sc4c(c3C(=O)O)CC(C)(C)CC4)cc2)NC(=O)OC2COC3(COC(=O)NCc4ccc(F)cc4)OCCC23)cc1 (stereo not drawn) [Compound I-784] | 7.3
27 | COc1ccc(S(=O)(=O)N(CC(C)C)CC(O)C(Cc2ccc(OCc3ccccc3-c3ncc4c(c3C(=O)O)CC(C)(C)CC4)cc2)NC(=O)OC2COC3(C)OCCC23)cc1 (stereo not drawn) [Compound I-251] | 2.3
28 | CC(C)CN(CC(O)C(Cc1ccc(CCc2sc3c(c2C(=O)O)CC(C)(C)CC3)cc1)NC(=O)OC1COC2(C)OCCC12O)S(=O)(=O)c1ccc2ncsc2c1 (stereo not drawn) [Compound I-889] | 1.49
29 | COc1ccc(S(=O)(=O)N(CC(C)C)CC(O)C(Cc2ccc(N(C)Cc3cccc(-c4sc5c(c4C(=O)O)CC(C)(C)CC5)n3)cc2)NC(=O)OC2COC3(C)OCCC23)cc1 (stereo not drawn) [Compound I-494] | 1.46
30 | COc1ccc(S(=O)(=O)N(CC(C)C)CC(O)C(Cc2ccc(NCc3ccccc3-c3c(C(=O)O)cnc4onc(C)c34)cc2)NC(=O)OC2COC3(C)OCCC23)cc1 (stereo not drawn) [Compound I-505] | 1.55
31 | COc1ccc(S(=O)(=O)N(CC(C)C)CC(O)C(Cc2ccc(N(C)CCOc3ccccc3-c3sc4c(c3C(=O)O)CC(C)(C)CC4)cc2)NC(=O)OC2COC3(C)OCCC23)cc1 (stereo not drawn) [Compound I-647] | 2.59
32 | COc1ccc(S(=O)(=O)N(CC(C)C)CC(O)C(Cc2ccc(NCc3ccccc3-c3c(C(=O)O)[nH]c4ccc(Cl)cc34)cc2)NC(=O)OC2COC3(C)OCCC23)cc1 (stereo not drawn) [Compound I-661] | 2.35
33 | CC(C)CN(CC(O)C(Cc1ccc(OCc2ccc(C(=O)O)cc2-c2ccc(F)cc2F)cc1)NC(=O)OC1COC2(C)OCCC12)S(=O)(=O)c1ccc2ncsc2c1 (stereo not drawn) [Compound I-150] | 0.93
